Reference: patent publication US7557145B2, “Inhibition of the asexual reproduction of fungi by eugenol and/or derivatives thereof” (Henkel Kommanditgesellschaft auf Aktien (Henkel KGAA), priority 2003, dated 2009)

Key:
Assay type in all cases: cell-based
[1] = test system: Aspergillus niger (DSM 1988); assay: Sporulation of Aspergillus niger on a filter surface after 2 applications; details: for Sporulation [%]: filter paper treated twice with 50 μl, 3 days at 25° C.
Procedure: Effect of Eugenol on the Sporulation of Aspergillus niger on a Filter Surface After 2 Applications
Filter papers (2×2 cm) were disinfected and treated twice with a 1 hour interval with 50 μl of active-component solutions differing in concentration. The test specimens were then dried. The test specimens were then placed on wort agar plates and the surface of the wort agar plates was contaminated with 100 μl of a germ suspension (10^3 CFU/ml) of Aspergillus niger (DSM 1988). The plates were incubated for 3 days at 25° C. Sporulation was visually evaluated and the sporulation rate in [%] was determined. […] Sporulation was inhibited by increasing concentrations of eugenol and was 90% suppressed at 90 μm.

[2] = test system: Aspergillus niger, DSM 1988; assay: Sporulation of Aspergillus niger on the surface of an acetate jointing compound
Procedure: Effect on Eugenol on the Sporulation of Aspergillis niger on the Surface of an Acetate Jointing Compound
Commercially available, but preservative-free, one-component silicone jointing compounds curing at room temperature (acetate system, cured 2.2×2.2×0.3 cm pieces of film) were disinfected with 70% EtOH (ethanol) and placed for 24 h in active component solutions with various concentrations (in ethanol, see Table for final concentrations). The test specimens were then re-washed twice with EtOH, rinsed with water (sterile) and dried for 24 h. The test specimens were weighed before and after this treatment and the quantity of active component in the test specimens was thus determined together with the concentration of the active component solution. The test specimens were then placed on wort agar plates and thinly coated with agar in which fungal spores had been incorporated (10^5 CFU/ml Aspergillus niger, DSM 1988). The plates were incubated for 3 days at 25° C. Sporulation was visually evaluated from the test specimens and the sporulation rate in [%] was determined.

[3] = test system: Aspergillus niger (DSM 1988); assay: Sporulation of Aspergillus niger on wort agar plates containing active component
Procedure: Effect of Eugenol and Eugenol Silicic Acid Esters on the Sporulation of Aspergillus niger
Contamination of the surface of wort agar plates with 100 μl of a germ suspension (10^3 CFU/ml) of Aspergillus niger (DSM 1988). Various quantities of active component (solutions in ethanol, final concentrations in % by weight, see Table) were added to the agar plates beforehand. The plates were incubated for 3 days at 25° C. Sporulation was visually evaluated and the sporulation rate in [%] was determined. […]

C=CCc1ccc(O)c(OC)c1 [eugenol, 4-allyl-2-methoxyphenol]
Sporulation suppressed ([1]; at 90 μm, filter surface after 2 applications): 90% | Sporulation [%] ([1]; concentration 0.6 μm): 100% | Sporulation [%] ([1]; concentration 6 μm): 100% | Sporulation [%] ([1]; concentration 30 μm): 100% | Sporulation [%] ([1]; concentration 45 μm): 100% | Sporulation [%] ([1]; concentration 60 μm): 100% | Sporulation [%] ([1]; concentration 90 μm): 10% | Sporulation [%] ([1]; concentration 120 μm): 10% | Sporulation [%] ([2]; concentration of eugenol 1.7 μm/g jointing compound, 3 days at 25° C.): 0% | Sporulation [%] ([2]; concentration of eugenol <1 μm/g jointing compound, 3 days at 25° C.): 100% | Sporulation [%] ([2]; concentration of eugenol ca. 3 μm/g jointing compound, 3 days at 25° C.): 0% | Concentration at which sporulation was completely suppressed ([2]; silicone jointing compound (acetate system), 3 days at 25° C.): 1.7 μm/g jointing compound | Sporulation [%] ([3]; concentration of eugenol 4 μm in wort agar, 3 days at 25° C., visually evaluated): 100% | Sporulation [%] ([3]; concentration of eugenol 40 μm in wort agar, 3 days at 25° C.): 100% | Sporulation [%] ([3]; concentration of eugenol 65 μm in wort agar, 3 days at 25° C.): 100% | Sporulation [%] ([3]; concentration of eugenol 90 μm in wort agar, 3 days at 25° C.): 80% | Sporulation [%] ([3]; concentration of eugenol 110 μm in wort agar, 3 days at 25° C.): 70% | Sporulation [%] ([3]; concentration of eugenol 220 μm in wort agar, 3 days at 25° C.): 0% | Sporulation [%] ([3]; concentration of eugenol 330 μm in wort agar, 3 days at 25° C.): 0% | Sporulation [%] ([3]; concentration of eugenol 650 μm in wort agar, 3 days at 25° C.): 0% | Concentration at which sporulation was completely suppressed ([3]; wort agar plates, 3 days at 25° C.): 220 µM

CC(C)=CCCC(C)=CCCC(C)=CCO [farnesol, reference compound]
Sporulation [%] ([1]; concentration 0.5 μm): 100% | Sporulation [%] ([1]; concentration 5 μm): 100% | Sporulation [%] ([1]; concentration 25 μm): 100% | Sporulation [%] ([1]; concentration 35 μm): 60% | Sporulation [%] ([1]; concentration 50 μm): 80% | Sporulation [%] ([1]; concentration 70 μm): 50% | Sporulation [%] ([1]; concentration 90 μm): 40% | Inhibition of sporulation compared with eugenol ([1]; second, parallel test series, identical concentrations): inhibited, but to a lesser extent compared with identical concentrations of eugenol | Sporulation [%] ([2]; concentration of farnesol 0.4 μm/g jointing compound, 3 days at 25° C.): 100% | Sporulation [%] ([2]; concentration of farnesol 1.1 μm/g jointing compound, 3 days at 25° C.): 100% | Sporulation [%] ([2]; concentration of farnesol 17 μm/g jointing compound, 3 days at 25° C.): 30% | Inhibition of sporulation compared with eugenol ([2]; parallel test series, identical concentrations): inhibited, but to a far lesser extent compared with identical concentrations of eugenol | Sporulation [%] ([3]; comparison test, concentration of farnesol 125 μm): 50%
